Test results taken from paper PMC8036603, “Small Molecule Inhibitors of White Spot Syndrome Virus: Promise in Shrimp Seedling Culture” (International Journal of Molecular Sciences, 2021).

Experiments:
[1] = tested on: white spot syndrome virus (WSSV); test: Preincubation of WSSV with compound before infection of larvae; type: in vivo, Litopenaeus vannamei; conditions: virus pre-incubated with compound 1–4 h; for increase of survival rate: 10 mg/L
Method: For preincubation with immersion, WSSV was preincubated with C2/C7 to a final viral titer of 1.6 × 10^5 copies/µL and up to 10 mg/L coumarin compound or vehicle control in the challenge wells. After 1, 2, and 4 h of incubation, shrimp larvae were added to the challenge well until 72-h post-infection. The surviving shrimp were humanely euthanized with tricaine methane sulfonate (MS-222) at a final concentration of 150 mg/L, followed by quantification of the copy number of the viral genome.

[2] = tested on: white spot syndrome virus (WSSV); test: Survival of WSSV-infected shrimp larvae on co-incubation with compound; type: in vivo, Litopenaeus vannamei; conditions: for enhancement of survival rate in WSSV-infected larvae: 72 hpi, 10 mg/L, co-incubation; for decrease of mortality of WSSV-infected larvae after exposure: abstract statement
Method: For in vivo study of co-incubation, C2 and C7 was separately incubated with WSSV and shrimp larvae.
Figure 2 C2 and C7 inhibited WSSV infection in shrimp larvae. (A) Schematic diagram describing the workflow. (B) The survival rate of WSSV-infected shrimp was analyzed in 0.31 to 10 mg/L treatments at 72 hpi. (C) Survivorship curve of WSSV-infected shrimp was analyzed in C2 and C7 up to 10 mg/L treatment. (D) Quantification on copy number of viral genome was tested by exposure to C2 and C7 up to 10 mg/L treatment at 24, 48, and 72 hpi, respectively. The virus-infected shrimps were immersed with the compounds and DMSO at the dose 0.2‰ (v/v). Each value is represented as the mean ± SD normalized to values for no treatment. The p value for each study was determined by Student’s t tests. ** p < 0.01.
[…], shrimp larvae were randomly selected, separated into six-well plates containing ultraviolet light-sterilized aquacultural water, and infected with WSSV (final viral titer of 1.6 × 10^5 copies/µL) in the presence of coumarins for 72 h. Mock negative controls (1% DMSO) were also used. The homogenate of each well containing sick or dead shrimp was subjected to low-speed centrifugation (2000× g). The viral load was quantified by determining the copy number of the viral genome in samples by quantitative reverse transcription polymerase chain reaction (RT-qPCR) assay, as previously described.

| Compound | effect on WSSV infection (viral genome copy number) [1] | increase of survival rate [1] | enhancement of survival rate in WSSV-infected larvae [2] | decrease of mortality of WSSV-infected larvae after exposure [2] |
| --- | --- | --- | --- | --- |
| Cc1ccc(C2C(C#N)=C(N)Oc3c2c(=O)oc2ccccc32)cc1 (centres unmarked) [C2, 2-amino-5-oxo-4-(p-tolyl)-4H,5H-pyrano[3,2-c]chromene-3-carbonitrile] | suppressed WSSV infection | up to 40% | more than 65% | more than 60% |
| 2-amino-4-(4-chlorophenyl)-5-oxo-4H,5H-pyrano[3,2-c]chromene-3-carbonitrile [C7] | suppressed WSSV infection | up to 40% | more than 65% | more than 60% |
